Results from patent US20040002526A1, “Phospholipase D inhibitors and uses thereof” (Cell Therapeutics, Inc., priority 2002, published 2004).
pIC50: −log10 of the molar value.

target: T1, PLD (phospholipase D); assay: In vitro assay of PLD activity ([3H]-choline release from labelled PC); format: biochemical, human; conditions: Table 1, monocyclic thiazolidinones of Formula I; PLD isoform not stated
T1 construct: fused on or other part: N-terminal polyhistidine tag (pFastBac HTc) on either enzyme
Procedure: Recombinant PLD1 and PLD2—Human PLD1 and PLD2 were isolated from Sf9 insect cells that had been infected with recombinant baculovirus vector, pFastBac™HTc vector (Life Technologies, Gaithersburg, Md.), containing PLD1 or PLD2 cDNAs.
PLD1 activity was assayed by measuring the generation of [^3H]-choline from [choline-methyl^3H](16:0, 16:0)PC.
The assay procedure for PLD2 was similar to that for PLD1, with the exception that arf1, PKC-α, and GTPγS were omitted from the reaction mixture. After addition of enzymes, the reactions were incubated for 1 hour at room temperature. Twenty microliters of 12% trichloroacetic acid (TCA) then were added to each sample, to stop the reaction and to precipitate the unreacted [choline-methyl^3H](16:0, 16:0)PC. Thereafter, the samples were passed through 0.65 μm Millipore 96 well filter plates to removed the excess [choline-methyl^3H](16:0, 16:0)PC. For each sample the filtrate (50 μl), which contained the [^3H]-choline released by PLD cleavage of PC, was analyzed using a TopCount™ Liquid Scintillation Counter, a product of Packard (Meriden, Conn.).

IC50	Structure (SMILES)
less active	COC(=O)c1ccc(-c2ccc(/C=C3\SC(=O)NC3=O)o2)cc1 [Compound 31, 4-[5-(2,4-dioxo-thiazolidin-5-ylidenemethyl)-furan-2-yl]-benzoic acid methyl ester]
less active	COC(=O)c1ccc(-c2ccc(/C=C3\SC(=O)N(CC4CC4)C3=O)o2)cc1 [Compound 33, 4-[5-(3-cyclopropylmethyl-2,4-dioxo-thiazolidin-5-ylidenemethyl)-furan-2-yl]-benzoic acid methyl ester]
less active	COC(=O)c1ccc(-c2ccc(/C=C3\SC(=S)N(Cc4cc(OC)c(OC)c(OC)c4)C3=O)s2)cc1 [Compound 36, 4-{5-[4-oxo-2-thioxo-3-(3,4,5-trimethoxy-benzyl)-thiazolidin-5-ylidenemethyl]-thiophen-2-yl}-benzoic acid methyl ester]

same assay, conditions: Table 1, monocyclic thiazolidinones of Formula I; PLD isoform not stated; read-out: IC50

Structure (SMILES)	pIC50
O=C(O)CN1C(=O)/C(=C\c2ccc(-c3ccccc3)o2)SC1=S [Compound 1, [4-oxo-5-(5-phenyl-furan-2-ylmethylene)-2-thioxo-thiazolidin-3-yl]-acetic acid]	5.40
O=C(O)CN1C(=O)/C(=C\c2ccc(-c3cccc(Cl)c3)o2)SC1=S [Compound 3, {5-[5-(3-chloro-phenyl)-furan-2-ylmethylene]-4-oxo-2-thioxo-thiazolidin-3-yl}-acetic acid]	5.70
O=C(O)CCN1C(=O)/C(=C/c2ccc(-c3ccccc3Cl)o2)SC1=S [Compound 4, 3-{5-[5-(2-chloro-phenyl)-furan-2-ylmethylene]-4-oxo-2-thioxo-thiazolidin-3-yl}-propionic acid]	6.10
O=C(O)c1cccc(-c2ccc(/C=C3/SC(=S)N(c4cccc(Cl)c4)C3=O)o2)c1 [Compound 6, 3-{5-[3-(3-chloro-phenyl)-4-oxo-2-thioxo-thiazolidin-5-ylidenemethyl]-furan-2-yl}-benzoic acid]	6.40
COc1ccc(N2C(=O)/C(=C\c3ccc(-c4cccc(C(=O)O)c4)o3)SC2=S)cc1 [Compound 7, 3-{5-[3-(4-methoxy-phenyl)-4-oxo-2-thioxo-thiazolidin-5-ylidenemethyl]-furan-2-yl}-benzoic acid]	5.89
O=C(O)c1ccc(-c2ccc(/C=C3\SC(=S)N(c4cccc(C(F)(F)F)c4)C3=O)o2)cc1 [Compound 8, 4-{5-[4-oxo-2-thioxo-3-(3-trifluoromethyl-phenyl)-thiazolidin-5-ylidenemethyl]-furan-2-yl}-benzoic acid]	5.85
CCN1C(=O)/C(=C\c2ccc(-c3cccc(C(=O)O)c3)o2)SC1=S [Compound 9, 3-[5-(3-ethyl-4-oxo-2-thioxo-thiazolidin-5-ylidenemethyl)-furan-2-yl]-benzoic acid]	6.22
Cc1cccc(N2C(=O)/C(=C/c3ccc(-c4ccc(C(=O)O)cc4)o3)SC2=S)c1 [Compound 10, 4-[5-(4-oxo-2-thioxo-3-m-tolyl-thiazolidin-5-ylidenemethyl)-furan-2-yl]-benzoic acid]	6.22
O=C(O)c1ccc(-c2ccc(/C=C3\SC(=S)N(Cc4ccccc4)C3=O)o2)cc1 [Compound 14, 4-[5-(3-benzyl-4-oxo-2-thioxo-thiazolidin-5-ylidenemethyl)-furan-2-yl]-benzoic acid]	> 6.40
O=C(O)c1cccc(-c2ccc(/C=C3\SC(=S)N(Cc4ccccc4)C3=O)o2)c1 [Compound 16, 3-[5-(3-benzyl-4-oxo-2-thioxo-thiazolidin-5-ylidenemethyl)-furan-2-yl]-benzoic acid]	> 6.05
O=C(O)c1ccc(-c2ccc(/C=C3\SC(=S)N(C4CCCCC4)C3=O)o2)cc1 [Compound 17, 4-[5-(3-cyclohexyl-4-oxo-2-thioxo-thiazolidin-5-ylidenemethyl)-furan-2-yl]-benzoic acid]	6.30
O=C(O)c1cccc(-c2ccc(/C=C3\SC(=S)N(c4cccc(F)c4)C3=O)o2)c1 [Compound 18, 3-{5-[3-(3-fluoro-phenyl)-4-oxo-2-thioxo-thiazolidin-5-ylidenemethyl]-furan-2-yl}-benzoic acid]	> 6.40
O=C(O)CCCN1C(=O)/C(=C/c2ccc(-c3ccc(Cl)c(Cl)c3)o2)SC1=S [Compound 21, 4-{5-[5-(3,4-dichloro-phenyl)-furan-2-ylidenemethyl]-4-oxo-2-thioxo-thiazolidin-3-yl}-butyric acid]	6.40
O=C(O)CCCN1C(=O)/C(=C/c2ccc(-c3ccc(O)c(O)c3)o2)SC1=S [Compound 22, 4-{5-[5-(3,4-dihydroxy-phenyl)-furan-2-ylidenemethyl]-4-oxo-2-thioxo-thiazolidin-3-yl}-butyric acid]	5.80
O=C(O)c1cccc(-c2ccc(/C=C3\SC(=S)N(C4CCCCC4)C3=O)o2)c1 [Compound 24, 3-[5-(3-Cyclohexyl-4-oxo-2-thioxo-thiazolidin-5-ylidenemethyl)-furan-2-yl]-benzoic acid]	> 6.40
COC(=O)c1ccc(-c2ccc(/C=C3\SC(=S)N(CCCN4CCOCC4)C3=O)o2)cc1 [Compound 28, 4-{5-[3-(3-morpholin-4-yl-propyl)-4-oxo-2-thioxo-thiazolidin-5-ylidenemethyl]-furan-2-yl}-benzoic acid methyl ester]	5.82
COC(=O)c1ccc(-c2ccc(/C=C3\SC(=S)N(Cc4ccccc4)C3=O)o2)cc1 [Compound 30, 4-[5-(3-benzyl-4-oxo-2-thioxo-thiazolidin-5-ylidenemethyl)-furan-2-yl]-benzoic acid methyl ester]	4.80
O=C(O)c1ccc(-c2ccc(/C=C3\SC(=S)N(Cc4ccccc4C(F)(F)F)C3=O)o2)cc1 [Compound 34, 4-{5-[4-oxo-2-thioxo-3-(2-trifluoromethyl-benzyl)-thiazolidin-5-ylidenemethyl]-furan-2-yl}-benzoic acid]	5.82
O=C(O)c1ccc(-c2ccc(/C=C3\SC(=S)N(Cc4cccs4)C3=O)s2)cc1 [Compound 37, 4-[5-(4-oxo-3-thiophen-2-ylmethyl-2-thioxo-thiazolidin-5-ylidenemethyl)-thiophen-2-yl]-benzoic acid]	5.30

Now from value to compound:

pIC50	Structure (SMILES)
5.74	O=C(O)CN1C(=O)/C(=C\c2ccc(-c3ccccc3Cl)o2)SC1=S [Compound 5, {5-[5-(2-chloro-phenyl)-furan-2-ylmethylene]-4-oxo-2-thioxo-thiazolidin-3-yl}-acetic acid]
> 6.40	Cc1cccc(N2C(=O)/C(=C/c3ccc(-c4cccc(C(=O)O)c4)o3)SC2=S)c1 [Compound 11, 3-[5-(4-oxo-2-thioxo-3-m-tolyl-thiazolidin-5-ylidenemethyl)-furan-2-yl]-benzoic acid]
> 6.40	COc1ccc(N2C(=O)/C(=C\c3ccc(-c4ccc(C(=O)O)cc4)o3)SC2=S)cc1 [Compound 12, 4-{5[3-(4-methoxy-phenyl)-4-oxo-2-thioxo-thiazolidin-5-ylidenemethyl]-furan-2-yl}-benzoic acid]
5.77	O=C(O)c1ccc(-c2ccc(/C=C3\SC(=S)N(c4cccc(F)c4)C3=O)o2)cc1 [Compound 13, 4-{5-[3-(3-fluoro-phenyl)-4-oxo-2-thioxo-thiazolidin-5-ylidenemethyl]-furan-2-yl}-benzoic acid]
> 6.40	Cc1ccc(N2C(=O)/C(=C/c3ccc(-c4ccc(C(=O)O)cc4)o3)SC2=S)c(C)c1 [Compound 15, 4-{5-[3-(2,4-dimethyl-phenyl)-4-oxo-2-thioxo-thiazolidin-5-ylidenemethyl]-furan-2-yl}-benzoic acid]
> 6.40	Cc1ccc(N2C(=O)/C(=C/c3ccc(-c4cccc(C(=O)O)c4)o3)SC2=S)c(C)c1 [Compound 19, 3-{5-[3-(2,4-dimethyl-phenyl)-4-oxo-2-thioxo-thiazolidin-5-ylidenemethyl]-furan-2-yl}-benzoic acid]
6.30	C=CCN1C(=O)/C(=C\c2ccc(-c3cccc(C(=O)O)c3)o2)SC1=S [Compound 20, 3-[5-(3-allyl-4-oxo-2-thioxo-thiazolidin-5-ylidenemethyl)-furan-2-yl]-benzoic acid]
5.05	O=C(O)c1ccc(N2C(=O)/C(=C/C=C/c3ccccc3)SC2=S)cc1 [Compound 23, 4-[4-oxo-5-(3-phenyl-allylidene)-2-thioxo-thiazolidin-3-yl]-benzoic acid]
5.52	COC(=O)c1ccc(-c2ccc(/C=C3\SC(=S)N(Cc4cc(OC)c(OC)c(OC)c4)C3=O)o2)cc1 [Compound 26, 4-{5-[4-oxo-2-thioxo-3-(3,4,5-trimethoxy-benzyl)-thiazolidin-5-ylidenemethyl]-furan-2-yl}-benzoic acid methyl ester]
5.52	COc1cc(CN2C(=O)/C(=C/c3ccc(-c4ccc(C(=O)O)cc4)o3)SC2=S)cc(OC)c1OC [Compound 27, 4-{5-[4-oxo-2-thioxo-3-(3,4,5-trimethoxy-benzyl)-thiazolidin-5-ylidenemethyl]-furan-2-yl}-benzoic acid]
5.40	O=C(O)c1ccc(-c2ccc(/C=C3\SC(=S)N(c4ccccc4)C3=O)o2)cc1 [Compound 29, 4-[5-(4-oxo-3-phenyl-2-thioxo-thiazolidin-5-ylidenemethyl)-furan-2-yl]-benzoic acid]
5.70	Cc1ccc(CN2C(=O)/C(=C/c3ccc(-c4ccc(C(=O)O)cc4)o3)SC2=S)cc1 [Compound 35, 4-{5-[3-(4-methyl-benzyl)-4-oxo-2-thioxo-thiazolidin-5-ylidenemethyl]-furan-2-yl}-benzoic acid]
